Test results reported in PMC12624432, “Development of Novel ^18F‑Labeled Selective Orexin‑2 Receptor Radioligands for Positron Emission Tomography” (ACS Pharmacology & Translational Science, 2025).
Entries after “also recorded” stand apart in the source; their conditions may differ.

Columns and labels:
OX2R [1] = assay: OX2R binding affinity; details: for selectivity over OX1R: OX2R over OX1R; for selectivity (OX2R/OX1R): ratio of Ki OX1 to Ki OX2
[2] = In vitro tracer stability in saline; type: physicochemical; details: over the studied time intervals
Method: (§1) [^18F]1 and [^18F]2 were obtained in 24% and 53% decay-corrected radiochemical yields (RCYs) with molar activities of 53 GBq/μmol and 38 GBq/μmol, respectively. […] Furthermore, in vitro stability tests of [^18F]1 and [^18F]2 were conducted in saline, serums, and liver microsomes across species.

[3] = In vitro tracer stability in serum; type: in vitro ADME; details: mouse, rat, nonhuman primate and human serum
Method: as §1

[4] = In vitro tracer stability in liver microsomes; type: in vitro ADME; details: mouse, rat and human liver microsomes
Method: as §1
Figure S3. Stability of [ 18F]1 in liver microsomes. (A) Stability of [ 18F]1 in mouse liver microsome; (B) Stability of [18F]1 in rat liver microsome; (C) Stability of [ 18F]1 in human […]
Figure S4. Stability of [ 18F]2 in liver microsomes. (A) Stability of [ 18F]2 in mouse liver microsome; (B) Stability of [18F]2 in rat liver microsome; (C) Stability of [ 18F]2 in human […]
Figure S5. TACs of [ 18F]1 in the whole rat brain under baseline and blocking (elacridar, elacridar and EMPA, or elacridar and LSN2424100; elacridar in 5 mg/kg, EMPA and LSN2424100 in 1 mg/kg) conditions; All data are mean ± SD, n ≥ 3. […]

[5] = Radiometabolic analysis in plasma and brain; type: in vivo, SD rats; details: rat brain homogenate, 30 min postinjection
Method: According to a previous report, SD rats were euthanized 30 min after the administration of [^18F]1 or [^18F]2. The brain was collected, homogenized with cold MeCN and PBS, and centrifuged (14,000g, 5 min) at 4 °C. The supernatant was analyzed by HPLC, and both tracers and radiometabolites were collected and measured by a γ counter. The same procedure was conducted for plasma.

OX2R [6] = biological target: OX2R; design: method as in earlier work; details: no binding method in paper; compounds previously reported; read-out: K i/OX2; cited from earlier work
OX2R [7] = biological target: T1, OX2R (Rattus norvegicus, UniProt P56719); assay: In vitro autoradiography on rat brain sections; type: binding; design: from tissue; host or cells: rat brain sections; details: blocking with EMPA, LSN2424100 or authentic reference compound, 10 μM, across regions
T1 sequence (P56719 1-460): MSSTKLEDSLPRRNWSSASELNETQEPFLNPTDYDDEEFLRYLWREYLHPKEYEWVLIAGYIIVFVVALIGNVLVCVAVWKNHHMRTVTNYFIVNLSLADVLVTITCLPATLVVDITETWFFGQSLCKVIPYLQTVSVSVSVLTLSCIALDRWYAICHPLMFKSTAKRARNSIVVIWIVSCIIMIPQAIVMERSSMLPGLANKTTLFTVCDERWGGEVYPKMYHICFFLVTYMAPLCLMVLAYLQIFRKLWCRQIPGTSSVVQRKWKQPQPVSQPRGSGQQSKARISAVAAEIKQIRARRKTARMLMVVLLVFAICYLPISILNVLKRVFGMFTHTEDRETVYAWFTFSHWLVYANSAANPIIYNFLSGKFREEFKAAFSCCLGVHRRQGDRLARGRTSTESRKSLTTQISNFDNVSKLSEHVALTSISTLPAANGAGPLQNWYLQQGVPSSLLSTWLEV
Method: According to a previous report, rat brain sections were incubated with Tris-HCl buffer (50 mM) and then with [^18F]1 or [^18F]2. In the blocking study, brain sections were incubated with the tracer in the presence of 1, 2, EMPA, or LSN2424100 (10 μM). Then the brain sections were washed with the cold buffer, dried, exposed to an imaging screen, and scanned with a Typhoon biomolecular imager.

OX2R [8] = biological target: T1, OX2R; assay: Dynamic PET imaging in the rat brain; type: in vivo, Sprague–Dawley rats; design: from tissue; host or cells: brain of living Sprague-Dawley rats; details: for tracer uptake reduction under blocking: EMPA or LSN2424100 1 mg/kg after elacridar pretreatment, all brain regions; for peak SUV in brain: baseline, 0.5 min postinjection; for increase in SUV0–60 min with elacridar: co-administration of elacridar 5 mg/kg (P-gp/BCRP inhibitor), across brain regions
Method: PET imaging was performed according to previous reports , with minor modifications. [^18F]1 or [^18F]2 (40 μCi) was administered via the tail vein of SD rats, and dynamic scans were performed with a G8 PET scanner (Sofie) for 60 min. In the blocking study, elacridar (5 mg/kg) and OX2R antagonist (EMPA or LSN2424100, 1 mg/kg) were injected at 20 and 10 min before the administration of the tracer, respectively.

Experimental log D = type: physicochemical
Source text: 1 Representative Pharmacological and Physicochemical Properties of 1 and 2 | column: compound 1; compound 2

sigma-2 = sigma-2 (Homo sapiens, UniProt Q5BJF2); assay: Off-target binding, sigma-2; details: read-out: K i sigma-2
sigma-2, sequence (Q5BJF2 whole entry): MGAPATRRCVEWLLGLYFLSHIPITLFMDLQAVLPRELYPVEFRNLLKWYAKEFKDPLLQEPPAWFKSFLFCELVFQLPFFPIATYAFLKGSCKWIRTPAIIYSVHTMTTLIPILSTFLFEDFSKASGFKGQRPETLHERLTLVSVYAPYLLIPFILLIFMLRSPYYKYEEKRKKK
Method: (§2) Target selectivity over OX1R exceeded 600-fold for both compounds, satisfying a key prerequisite for selective OX2R imaging. […] CNS penetration was further predicted using Percepta, yielding log BB values of −0.14 and −0.36 for compounds 1 and 2, respectively, well above the empirical threshold for BBB permeability (log BB > −1). Additionally, off-target binding screening was conducted for compounds 1 and 2 toward 59 major CNS targets (Figures S1 and S2).
(§3) 1. Supporting Figures and Tables
(§4) Figure S1. Off-target pharmacological evaluation of compound 1. Initial screening of 59 major CNS targets at a concentration of 1 at 10 μM, including common GPCRs, enzymes, ion channels, and transporters. All data are mean ± SD (n ≥ 3).
(§5) Figure S2. Off-target pharmacological evaluation of compound 2. Initial screening of 59 major CNS targets at a concentration of 2 at 10 μM, including common GPCRs, enzymes, […]

NR2B receptors = NR2B receptors (Homo sapiens, UniProt Q05586+Q13224); assay: Off-target binding, NR2B; details: read-out: K i NR2B
NR2B receptors, sequence (Q13224 27-1484, other chains not shown): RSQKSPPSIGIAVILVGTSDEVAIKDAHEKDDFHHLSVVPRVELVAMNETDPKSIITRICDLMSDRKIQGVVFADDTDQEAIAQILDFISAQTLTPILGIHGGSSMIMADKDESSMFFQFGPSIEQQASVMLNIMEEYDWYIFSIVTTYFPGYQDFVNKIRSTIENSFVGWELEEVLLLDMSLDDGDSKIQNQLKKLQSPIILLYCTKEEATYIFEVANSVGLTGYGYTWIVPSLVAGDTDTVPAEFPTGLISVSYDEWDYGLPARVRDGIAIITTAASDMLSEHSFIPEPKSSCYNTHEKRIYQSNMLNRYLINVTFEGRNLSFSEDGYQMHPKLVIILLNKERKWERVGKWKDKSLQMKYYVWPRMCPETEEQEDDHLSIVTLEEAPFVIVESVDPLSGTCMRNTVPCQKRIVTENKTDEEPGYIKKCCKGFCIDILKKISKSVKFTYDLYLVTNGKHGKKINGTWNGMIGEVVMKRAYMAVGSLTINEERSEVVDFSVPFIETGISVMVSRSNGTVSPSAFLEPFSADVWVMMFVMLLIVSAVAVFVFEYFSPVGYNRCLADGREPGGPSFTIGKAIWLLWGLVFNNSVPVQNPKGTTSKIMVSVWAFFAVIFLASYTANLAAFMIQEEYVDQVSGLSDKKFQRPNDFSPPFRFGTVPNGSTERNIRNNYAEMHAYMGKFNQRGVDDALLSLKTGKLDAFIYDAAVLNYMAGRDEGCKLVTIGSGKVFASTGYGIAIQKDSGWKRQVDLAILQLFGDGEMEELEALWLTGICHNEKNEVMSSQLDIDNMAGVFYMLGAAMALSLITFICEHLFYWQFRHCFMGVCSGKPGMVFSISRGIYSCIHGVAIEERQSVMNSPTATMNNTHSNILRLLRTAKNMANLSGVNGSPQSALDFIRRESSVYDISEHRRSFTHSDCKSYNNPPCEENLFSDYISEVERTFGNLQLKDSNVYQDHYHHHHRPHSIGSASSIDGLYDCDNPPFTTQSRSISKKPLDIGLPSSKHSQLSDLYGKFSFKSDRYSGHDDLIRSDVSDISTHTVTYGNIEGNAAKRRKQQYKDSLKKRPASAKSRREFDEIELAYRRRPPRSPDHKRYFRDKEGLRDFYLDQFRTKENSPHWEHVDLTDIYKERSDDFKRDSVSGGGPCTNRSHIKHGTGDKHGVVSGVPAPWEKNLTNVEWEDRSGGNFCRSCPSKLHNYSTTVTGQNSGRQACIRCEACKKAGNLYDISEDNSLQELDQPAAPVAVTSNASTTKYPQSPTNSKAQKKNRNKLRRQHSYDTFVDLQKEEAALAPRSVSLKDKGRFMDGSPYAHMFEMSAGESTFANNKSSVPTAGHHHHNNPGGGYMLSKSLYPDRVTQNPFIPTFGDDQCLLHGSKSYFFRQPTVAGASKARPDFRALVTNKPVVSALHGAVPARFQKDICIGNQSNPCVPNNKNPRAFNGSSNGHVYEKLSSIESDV
Method: as §2, §3, §4, §5

[9] = system: 59 major CNS targets (GPCRs, enzymes, ion channels, transporters); assay: Off-target binding screening of 59 major CNS targets; details: 10 μM; significant = > 50%; except sigma 2 (and NR2B for 1)
Method: as §2, §3, §4, §5

OX1R = biological target: OX1R; design: method as in earlier work; details: no binding method in paper; compounds previously reported; read-out: K i/OX1; cited from earlier work
OX2R [10] = system: OX2R; design: method as in not given; details: introduction, literature statement; ref not given; cited from earlier work

selectivity (OX2R/OX1R) (OX2R [1])	logD (Experimental log D)	Ki (sigma-2) [nM]	Ki (NR2B receptors) [nM]	Compound	selectivity over OX1R (OX2R [1])	radiometabolites in saline (stability) [2]	radiometabolites in serum (stability) [3]	radiometabolites in liver microsomes (stability) [4]	intact parent tracer in brain [5]	Ki (OX2R [6]) [nM]	autoradiography signal reduction under blocking (OX2R [7])	tracer uptake reduction under blocking (OX2R [8])	peak SUV in brain (OX2R [8])	increase in SUV0–60 min with elacridar (OX2R [8]) [%]	off-target binding toward 59 major CNS targets [9]	Ki (OX1R) [nM]	selectivity for OX2R (OX2R [10]) [fold]
–	–	–	–	Cc1c(C#N)ccnc1O[C@@H]1CC[C@@H](C)N(C(=O)c2cc([18F])ccc2-c2nccs2)C1 [[^18F]1]	> 600 fold	No appreciable radiometabolites were detected	No appreciable radiometabolites were detected	No appreciable radiometabolites were detected	ca. 90%	0.1	54–84%	40–43%	2.1	> 100	–	–	–
–	–	–	–	CC1CCC(Oc2cc(C#N)ccn2)CN1C(=O)c1cc([18F])ccc1-c1ncccn1 (stereo not drawn) [[^18F]2]	> 600 fold	No appreciable radiometabolites were detected	No appreciable radiometabolites were detected	No appreciable radiometabolites were detected	ca. 90%	1	51–71%	23–46%	1.8	> 100	–	–	–
890	3.43	2680	9480	Cc1c(C#N)ccnc1O[C@@H]1CC[C@@H](C)N(C(=O)c2cc(F)ccc2-c2nccs2)C1 [compound 1, 2-(((3R,6R)-1-(5-Fluoro-2-(thiazol-2-yl)benzoyl)-6-methylpiperidin-3-yl)oxy)-3-methylisonicotinonitrile]	exceeded 600 fold	–	–	–	–	0.1	–	–	–	–	No off-target activity was observed; also recorded: No significant off-target	89	–
658	2.54	4730	–	C[C@@H]1CC[C@@H](Oc2cc(C#N)ccn2)CN1C(=O)c1cc(F)ccc1-c1ncccn1 [compound 2, 2-(((3R,6R)-1-(5-Fluoro-2-(pyrimidin-2-yl)benzoyl)-6-methylpiperidin-3-yl)oxy)isonicotinonitrile]	exceeded 600 fold	–	–	–	–	1	–	–	–	–	No off-target activity was observed; also recorded: No significant off-target	658	–
–	–	–	–	orexin B: endogenous neuropeptide ligand of the orexin receptors, selective for OX2R	–	–	–	–	–	–	–	–	–	–	–	–	> 10
